Results reported in ChEMBL document CHEMBL5543113, “Amphiphilic α-Peptoid-deoxynojirimycin Conjugate-based Multivalent Glycosidase Inhibitor for Hypoglycemic Effect and Fluorescence Imaging” (J Med Chem, 2024).
Calls of active or inactive are those of the source. The rule behind the calls is not given here.

What was measured:
Mus musculus [1] = assay: Hypoglycemic activity in C57BL/6J mouse assessed as decrease in PBG level at 0.8 mg/kg, po co-administered with maltose and measured after 15 mins by glucometer relative to control; assay type: functional; set-up: scale not given: the % may be the effect or the level left; settings: 0.25 h
[2] = Self assembly property of the compound assessed as diameter at 5 x 10^-5 mol/L by dynamic light scattering spectrometric analysis; assay type: physicochemical; settings: 50 µM; dose 5 10^-5mol/L
[3] = Self assembly property of the compound assessed as diameter at 1 x 10^-5 mol/L by dynamic light scattering spectrometric analysis; assay type: physicochemical; settings: 10 µM; dose 1 10^-5mol/L
Mus musculus [4] = assay: Relative hypoglycemic rate in C57BL/6J mouse assessed as molar reduction in PBG level by measuring fold change at 1.6 mg/kg, po co-administered with maltose and measured after 30 mins by glucometer relative to miglitol; assay type: functional; settings: 0.5 h
Mus musculus [5] = assay: Hypoglycemic activity in C57BL/6J mouse assessed as molar reduction in PBG level at 1.6 mg/kg, po co-administered with maltose and measured after 30 mins by glucometer relative to control; assay type: functional; set-up: scale not given: the % may be the effect or the level left; settings: 0.5 h
[6] = Stability of compound in simulated intestinal fluid at 2 x 10^-4 M administered as Nile red complex by fluorescence spectra analysis; assay type: ADME; settings: simulated gi fluid, 200 µM; dose 2 10^-4M
Mus musculus [7] = assay: Hypoglycemic activity in C57BL/6J mouse assessed as blood glucose level at 0.4 mg/kg, po co-administered with maltose and measured after 15 mins by glucometer (380.8 +/- 20.6 mg/dl); assay type: functional; settings: 0.25 h
[8] = Inhibition of rice Alpha-glucosidase incubated for 10 mins by Lineweaver-Burk plot analysis; set-up: species or system Oryza sativa
Mus musculus [9] = assay: Hypoglycemic activity in C57BL/6J mouse assessed as decrease in PBG level at 0.4 mg/kg, po co-administered with maltose and measured after 15 mins by glucometer relative to control; assay type: functional; set-up: scale not given: the % may be the effect or the level left; settings: 0.25 h
Aspergillus niger [10] = assay: Potency index, ratio of miglitol Ki to test compound Ki for inhibition of Aspergillus niger Alpha-glucosidase incubated for 10 mins by Lineweaver-Burk plot analysis
Aspergillus niger [11] = assay: Potency index, ratio of 1-deoxynojirimycin Ki to test compound Ki for inhibition of Aspergillus niger Alpha-glucosidase incubated for 10 mins by Lineweaver-Burk plot analysis
[12] = Toxicity in C57BL/6J mouse assessed as effect on lung morphology at 1.6 mg/kg, po co-administered with maltose for 7 days by Hematoxylin and eosin staining based analysis; assay type: organism-based; settings: in vivo, 168 h, time 7 day
Mus musculus [13] = assay: Hypoglycemic activity in KKAy diabetic mouse model assessed as decrease in PBG level at 1.6 mg/kg, po co-administered with maltose and measured after 60 mins by glucometer relative to control; assay type: functional; set-up: scale not given: the % may be the effect or the level left; settings: 1 h
[14] = Self assembly property of the compound assessed as diameter at 1 x 10^-4 mol/L by dynamic light scattering spectrometric analysis; assay type: physicochemical; settings: 100 µM; dose 1 10^-4mol/L
[15] = Self assembly property of the compound in water assessed as diameter at 1 x 10^-4 M by transmission electron microscopic analysis; assay type: physicochemical; settings: buffer, 100 µM; dose 1 10^-4M
[16] = Self assembly property of compound assessed as Nilered-compound complex formation by measuring critical micellar concentration at 638 nm by Nile red dye based fluorescence analysis; assay type: physicochemical
Mus musculus [17] = assay: Hypoglycemic activity in C57BL/6J mouse assessed as decrease in PBG level at 0.8 mg/kg, po co-administered with maltose and measured after 30 mins by glucometer relative to control; assay type: functional; set-up: scale not given: the % may be the effect or the level left; settings: 0.5 h
Mus musculus [18] = assay: Binding affinity to mouse alpha-glucosidase assessed as decrease in fluorescence intensity at 200 uM administered as Nile red complex in presence of miglitol by fluorescence spectra analysis
Mus musculus [19] = assay: Hypoglycemic activity in KKAy diabetic mouse model assessed as decrease in PBG level at 1.6 mg/kg, po co-administered with maltose and measured after 120 mins by glucometer relative to control; assay type: functional; set-up: scale not given: the % may be the effect or the level left; settings: 2 h
[20] = Binding affinity to mouse alpha-glucosidase assessed as miglitol binding constant at 200 uM administered as Nile red complex in presence of miglitol by fluorescence spectra analysis
Mus musculus [21] = assay: Hypoglycemic activity in C57BL/6J mouse assessed as blood glucose level at 1.6 mg/kg, po co-administered with maltose and measured after 30 mins by glucometer (380.8 +/- 20.6 mg/dL); assay type: functional; settings: 0.5 h
Mus musculus [22] = assay: Hypoglycemic activity in C57BL/6J mouse assessed as decrease in PBG level at 1.6 mg/kg, po co-administered with maltose and measured after 30 mins by glucometer relative to control; assay type: functional; set-up: scale not given: the % may be the effect or the level left; settings: 0.5 h
Mus musculus [23] = assay: Relative hypoglycemic rate in KKAy diabetic mouse model assessed as molar reduction in PBG level by measuring fold change at 1.6 mg/kg, po co-administered with maltose and measured after 30 mins by glucometer relative to miglitol; assay type: functional; settings: 0.5 h
[24] = Drug uptake in C57/6J mouse kidney assessed as increase in fluorescence at 5 x 10^-5M, po administered as Nile red complex and measured after 4 hrs by fluorescence imaging analysis; assay type: ADME, organism-based; settings: in vivo, dose 5 10^-5M
Mus musculus [25] = assay: Hypoglycemic activity in C57BL/6J mouse assessed as blood glucose level at 0.8 mg/kg, po co-administered with maltose and measured after 30 mins by glucometer (380.8 +/- 20.6 mg/dL); assay type: functional; settings: 0.5 h
[26] = Binding affinity to mouse alpha-glucosidase assessed as DNJ binding constant at 2 x 10^-4 M administered as Nile red complex in presence of DNJ by fluorescence spectra analysis
Mus musculus [27] = assay: Hypoglycemic activity in KKAy diabetic mouse model assessed as decrease in PBG level at 1.6 mg/kg, po co-administered with maltose and measured after 30 mins by glucometer relative to control; assay type: functional; set-up: scale not given: the % may be the effect or the level left; settings: 0.5 h
Mus musculus [28] = assay: Binding affinity to mouse alpha-glucosidase assessed as fluorescence intensity at 2 x 10^-4 M administered as Nile red complex by fluorescence spectra analysis (reference value: 3586); settings: dose 2.0 10^-4M
[29] = molecular target: Alpha-glucosidase (Saccharomyces cerevisiae S288c) (UniProt P53341+P38158+P07265); assay: Inhibition of Saccharomyces cerevisiae Alpha-glucosidase at 1 mM incubated for 10 mins by absorbance based microplate spectrophotometric analysis; assay type: protein assay
Mus musculus [30] = assay: Hypoglycemic activity in KKAy diabetic mouse model assessed as decrease in PBG level at 1.6 mg/kg, po co-administered with maltose and measured after 15 mins by glucometer relative to control; assay type: functional; set-up: scale not given: the % may be the effect or the level left; settings: 0.25 h
Oryza sativa = assay: Potency index, ratio of miglitol Ki to test compound Ki for inhibition of rice Alpha-glucosidase incubated for 10 mins by Lineweaver-Burk plot analysis
[31] = Stability of compound in simulated gastric fluid assessed as fluorescence intensity at 2 x 10^-4 M administered as Nile red complex by fluorescence spectra analysis (reference value: 3548); assay type: ADME; settings: simulated gi fluid, 200 µM; dose 2 10^-4M
Mus musculus [32] = assay: Hypoglycemic activity in KKAy diabetic mouse model assessed as blood glucose level at 1.6 mg/kg, po co-administered with maltose and measured after 15 mins by glucometer (reference value: 582.6 +/- 22.9 mg/dl); assay type: functional; settings: 0.25 h
Mus musculus [33] = assay: Hypoglycemic activity in C57BL/6J mouse assessed as reduction in PBG level measured per DNJ unit at 1.6 mg/kg, po co-administered with maltose and measured at 15 to 30 mins by glucometer relative to control; assay type: functional; set-up: scale not given: the % may be the effect or the level left; settings: time 15-30 min

CCCCCCCCCCCCCCCCCCNC(=O)CN(Cc1cn(CCCCCCN2C[C@H](O)[C@@H](O)[C@H](O)[C@H]2CO)nn1)C(=O)CN(Cc1cn(CCCCCCN2C[C@H](O)[C@@H](O)[C@H](O)[C@H]2CO)nn1)C(=O)CN(Cc1cn(CCCCCCN2C[C@H](O)[C@@H](O)[C@H](O)[C@H]2CO)nn1)C(=O)CN(Cc1cn(CCCCCCN2C[C@H](O)[C@@H](O)[C@H](O)[C@H]2CO)nn1)C(C)=O
Activity (Mus musculus [1]): 12.2%
Activity [2]: 233 nm
Activity [3]: 179 nm
fold change (FC) (Mus musculus [4]): 4
Activity (Mus musculus [5]): 11.5%
Stability [6]: Stable
Activity (Mus musculus [7]): 347.8 mg/dL
Ki [8]: 27 nM
Activity (Mus musculus [9]): 6.5%
Ratio Ki (Aspergillus niger [10]): 121
Ratio Ki (Aspergillus niger [11]): 21.2
Activity [12]: Non-Toxic
Activity (Mus musculus [13]): 22.1%
Activity [14]: 276 nm
Activity [15]: 96 nm
CAC [16]: 8.31 10^-5M
Activity (Mus musculus [17]): 24.5%
Activity (Mus musculus [18]): inactive
Activity (Mus musculus [19]): 19.9%
Ka [20]: 205 M⁻¹
Activity (Mus musculus [21]): 230.4 mg/dL
Activity (Mus musculus [22]): 39.5%
fold change (FC) (Mus musculus [23]): 6.9
Drug uptake [24]: Not Active
Activity (Mus musculus [25]): 287.6 mg/dL
Ka [26]: 308 M⁻¹
Activity (Mus musculus [27]): 26.2%
Flu intensity (Mus musculus [28]): 1750
inhibition [29]: inactive
Activity (Mus musculus [30]): 6.6%
Ratio Ki (Oryza sativa): 6.7
Flu intensity [31]: 862
Activity (Mus musculus [32]): 327.6 mg/dL
Activity (Mus musculus [33]): 11.5%
